Experimental data as given in patent US5856309A, “Amidinopyrroline derivatives, processes for their production and pharmaceutical agents containing these compounds” (Boehringer Mannheim GmbH, priority 1997, dated 1999).

What was measured:
[1] = target: isolated activated GpIIb/IIIa receptor (Homo sapiens, UniProt P05106+P08514); experiment: GpIIb/IIIa fibrinogen Elisa; details: inhibition of fibrinogen binding to coated GpIIb/IIIa receptor, optical density at 405 nm
Description: The GpIIb/IIIa fibrinogen Elisa is a modification of assays which are described in the following literature: Nachman, R. L. & Leung, L. L. K. (1982): J. Clin. Invest. 69: 263-269 and Wright, P. S. et al. (1993): Biochem. J. 293:263-267.
Microtiter plates were coated overnight with 2 μg/ml isolated activated GpIIb/IIIa receptor. After unbound receptor had been removed by washing several times the surface of the plates is blocked with 1% casein and it is washed again. The test substance is added at the required concentrations and the plates are incubated for 10 minutes while shaking. The natural ligand of the gpIIb/IIIa receptor, fibrinogen, is added. After incubating for 1 hour unbound fibrinogen is removed by washing several times and the bound fibrinogen is determined by means of a peroxidase-conjugated, anti-fibrinogen monoclonal antibody by measuring the optical density at 405 nm in an ELISA instrument. The inhibition of a fibrinogen-GpIIb/IIIa interaction results in a low optical density. The IC50 value was determined by a concentration/effect curve.

horse thrombin = experiment: Thrombin time in citrate plasma (sphere coagulometer); type: biochemical; details: citrate plasma of healthy donors, 37° C., control ca. 24 seconds
Description: A common test in clinical coagulation diagnostics is the thrombin time. This parameter detects the action of thrombin on fibrinogen and the formation of blood clots. Inhibitors of thrombin result in an increased thrombin time.
In order to obtain plasma 9 parts fresh blood from healthy donors are mixed with one part sodium citrate solution (0.11 mol/l) and centrifuged at ca. 3000 rpm for 10 min at room temperature. The plasma was removed by pipette and can be stored for ca. 8 h at room temperature.
200 ul citrate plasma was incubated for 2 min at 37° C. in a sphere coagulometer (KC10 from the Amelung Company). 10 ul dimethylsulfoxide (DMSO) or a solution of the active substance in DMSO was added to 190 ul preheated thrombin reagent (Boehringer Mannheim, GmbH; contains ca. 3 U/ml horse thrombin and 0.0125M Ca2+). A stopwatch was started when this 200 ul solution was added to the plasma and the time point at which coagulation starts was determined. […] [* the experiment was stopped after 5 minutes.]

[2] = target: T1, bovine pancreatic trypsin (Bos taurus, UniProt P00760); experiment: Inhibition of trypsin, kinetic measurement as described for thrombin; type: biochemical; details: measured as described for thrombin, read-out: inhibition constant Ki (trypsin)
T1 construct: purchased Sigma
T1 sequence (P00760 24-246): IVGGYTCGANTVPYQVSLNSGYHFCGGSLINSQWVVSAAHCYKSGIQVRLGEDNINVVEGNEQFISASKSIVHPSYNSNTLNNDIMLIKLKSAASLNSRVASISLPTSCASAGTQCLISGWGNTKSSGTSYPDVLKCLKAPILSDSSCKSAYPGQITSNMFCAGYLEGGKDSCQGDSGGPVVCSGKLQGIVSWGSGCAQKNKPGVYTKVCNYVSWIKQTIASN
Description: The kinetic measurements were carried out in 0.1M phosphate buffer which contained 0.2M sodium chloride and 0.5% polyethylene glycol 6000 at a pH=7.5 and 25° C. using the substrate H-(D)-Phe-Pro-Arg-pNA (S-2238 Kabi) and human thrombin (Sigma, specific activity=2150 NIH units/mg) in polystyrene semimicro-cuvettes in a total volume of 1 ml.
For this the reaction was started first by adding 0.03 NIH units thrombin to a 100 μM solution of the substrate and the active substance. In a second experiment substrate was added to a solution of thrombin and the active substance which had been incubated for 5 min. The increase of the concentration of p-nitro-anilide with time was monitored spectrophotometrically for 12 min at 405 nm (UV-VIS spectrophotometer Lambda-2 from the Perkin-Elmer Company). […] The inhibition constant Ki was determined as follows. […] The increase in absorbance at 405 nm caused by the formation of p-nitroanilide was monitored for a time period of 12 min. Measurement points (time versus absorbance) were transferred to a PC at intervals of 20 sec. The rates Vo (changes in absorbance per see; measurements without inhibitor) and Vi (measurements with inhibitor) were determined from the data by linear regression. […] From one measurement series (constant inhibitor concentration, variable substrate concentrations) Km' and Vmax were determined by a non-linear fit to the equation [formula] […]

isolated activated GpIIb/IIIa receptor, sequence (P08514 32-887 limits assumed): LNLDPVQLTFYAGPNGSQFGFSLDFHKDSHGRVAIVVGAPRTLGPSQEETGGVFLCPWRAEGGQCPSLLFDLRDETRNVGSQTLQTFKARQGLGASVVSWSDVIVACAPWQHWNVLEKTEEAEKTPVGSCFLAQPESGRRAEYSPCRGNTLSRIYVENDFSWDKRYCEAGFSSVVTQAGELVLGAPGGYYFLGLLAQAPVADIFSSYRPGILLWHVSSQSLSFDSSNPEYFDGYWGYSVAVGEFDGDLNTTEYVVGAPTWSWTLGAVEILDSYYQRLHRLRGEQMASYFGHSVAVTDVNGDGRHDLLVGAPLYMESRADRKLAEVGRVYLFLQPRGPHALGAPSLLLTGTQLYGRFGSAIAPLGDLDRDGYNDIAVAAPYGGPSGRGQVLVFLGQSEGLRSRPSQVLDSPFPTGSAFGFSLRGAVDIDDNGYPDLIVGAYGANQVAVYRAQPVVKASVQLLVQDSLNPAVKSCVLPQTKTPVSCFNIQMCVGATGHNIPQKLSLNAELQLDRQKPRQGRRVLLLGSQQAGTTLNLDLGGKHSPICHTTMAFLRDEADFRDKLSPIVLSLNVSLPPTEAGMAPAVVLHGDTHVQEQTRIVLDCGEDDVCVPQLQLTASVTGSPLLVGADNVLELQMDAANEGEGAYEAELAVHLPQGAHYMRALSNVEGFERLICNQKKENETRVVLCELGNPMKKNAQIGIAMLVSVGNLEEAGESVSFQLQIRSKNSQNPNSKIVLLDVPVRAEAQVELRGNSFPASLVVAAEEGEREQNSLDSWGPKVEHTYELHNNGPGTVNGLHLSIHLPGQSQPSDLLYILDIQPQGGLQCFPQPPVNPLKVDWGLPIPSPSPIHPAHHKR
isolated activated GpIIb/IIIa receptor, sequence (P08514 891-1039 partner limits assumed): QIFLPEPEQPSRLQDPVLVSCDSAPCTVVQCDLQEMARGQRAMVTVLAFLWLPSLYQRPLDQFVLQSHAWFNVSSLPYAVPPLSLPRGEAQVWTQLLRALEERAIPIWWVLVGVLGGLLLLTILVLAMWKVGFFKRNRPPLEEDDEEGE
isolated activated GpIIb/IIIa receptor, sequence (P05106 27-788): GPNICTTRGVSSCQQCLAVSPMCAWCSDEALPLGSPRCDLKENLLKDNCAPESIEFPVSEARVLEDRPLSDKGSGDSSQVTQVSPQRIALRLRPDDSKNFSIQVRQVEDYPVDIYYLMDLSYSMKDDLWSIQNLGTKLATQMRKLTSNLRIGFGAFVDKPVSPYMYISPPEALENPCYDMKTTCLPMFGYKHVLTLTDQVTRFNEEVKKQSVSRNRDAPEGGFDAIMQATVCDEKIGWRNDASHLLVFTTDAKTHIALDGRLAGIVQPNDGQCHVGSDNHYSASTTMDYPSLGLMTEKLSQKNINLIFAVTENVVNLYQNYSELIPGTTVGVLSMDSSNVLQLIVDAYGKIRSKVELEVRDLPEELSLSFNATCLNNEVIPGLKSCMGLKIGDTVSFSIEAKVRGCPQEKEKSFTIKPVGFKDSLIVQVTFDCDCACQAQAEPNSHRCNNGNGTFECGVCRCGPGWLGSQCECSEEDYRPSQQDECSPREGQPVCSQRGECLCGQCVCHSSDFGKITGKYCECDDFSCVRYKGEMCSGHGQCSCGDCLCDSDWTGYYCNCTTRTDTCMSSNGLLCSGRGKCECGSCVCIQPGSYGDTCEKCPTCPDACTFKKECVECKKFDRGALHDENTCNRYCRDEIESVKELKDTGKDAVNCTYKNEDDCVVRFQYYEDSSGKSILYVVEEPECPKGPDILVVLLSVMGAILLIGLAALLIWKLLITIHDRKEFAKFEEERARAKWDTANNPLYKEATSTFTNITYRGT

Compound	IC50 [1] [nM]	further results
N=C(N)N1CC=C(CC(NC(=O)OCC(Cl)(Cl)Cl)C(=O)NCC(=O)N[C@@H](CC(=O)O)C(=O)N[C@@H](CO)C(=O)O)C1 (stereo partly drawn) [Example 7, Troc-Ada-Gly-Asp-Ser]	14400	–
N=C(N)N1CC=C(CC(NC(=O)OCC(Cl)(Cl)Cl)C(=O)NCC(=O)N[C@@H](CC(=O)O)C(=O)N[C@@H](Cc2c[nH]c3ccccc23)C(=O)O)C1 (stereo partly drawn) [Example 8, Troc-Ada-Gly-Asp-Trp]	400	–
N=C(N)N1CC=C(CC(NC(=O)OCC(Cl)(Cl)Cl)C(=O)NCC(=O)N[C@@H](CC(=O)O)C(=O)N[C@@H](Cc2ccccc2)C(=O)O)C1 (stereo partly drawn) [Example 9, Troc-Ada-Gly-Asp-Phe]	2300	–
N=C(N)N1CC=C(CC(N)C(=O)NCC(=O)N[C@@H](CC(=O)O)C(=O)N[C@@H](Cc2ccc(O)cc2)C(=O)O)C1 (stereo partly drawn) [Example 10, Ada-Gly-Asp-Tyr]	2400	–
D-Pla-D-Phe-L-Choi-Adc [Example 1]	–	increase of thrombin time (horse thrombin; test concentration 3.5 nM): 5 s; increase of thrombin time (horse thrombin; test concentration 34 nM): 65 s; increase of thrombin time (horse thrombin; test concentration 340 nM, experiment stopped after 5 minutes): > 300 s; Ki [2]: 100 nM
